Experiments:
Neutrophil elastase [1] = molecular target: T1, Neutrophil elastase (Homo sapiens, UniProt P08246); assay: In vitro inhibition of human leukocyte elastase.
T1 sequence (P08246 whole entry): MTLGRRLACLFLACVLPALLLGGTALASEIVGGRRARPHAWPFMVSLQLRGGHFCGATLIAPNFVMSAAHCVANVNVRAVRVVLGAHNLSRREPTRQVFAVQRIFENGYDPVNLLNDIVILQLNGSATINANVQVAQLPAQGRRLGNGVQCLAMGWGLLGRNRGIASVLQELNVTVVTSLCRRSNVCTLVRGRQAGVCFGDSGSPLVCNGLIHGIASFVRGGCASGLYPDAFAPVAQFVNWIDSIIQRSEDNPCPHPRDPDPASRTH

Pancreatic elastase = Pancreatic elastase (Sus scrofa, UniProt P08419+P00772); assay: Inhibitory activity against porcine pancreatic elastase using Suc-Ala-Ala-Ala-pNA (416 uM) as substrate; type: protein assay
Chymotrypsinogen A [2] = molecular target: T2, Chymotrypsinogen A (Bos taurus, UniProt P00766); assay: Inhibitory activity against chymotrypsin using Suc-Ala-Ala-Pro-Phe-pNA (416 uM) as substrate;No Inhibition; design: species or system Sus scrofa
Neutrophil elastase [3] = molecular target: T1, Neutrophil elastase; assay: Inhibitory activity against human leukocyte elastase using MeO-Suc-Ala-Ala-Pro-Val-pNA (416 uM) as substrate;No Inhibition
Chymotrypsinogen A [4] = molecular target: T2, Chymotrypsinogen A; assay: Inhibitory activity against chymotrypsin using Suc-Ala-Ala-Pro-Phe-pNA (416 uM) as substrate; No Inhibition; design: species or system Sus scrofa
Neutrophil elastase [5] = molecular target: T1, Neutrophil elastase; assay: Inhibitory activity against human leukocyte elastase using MeO-Suc-Ala-Ala-Pro-Val-pNA (416 uM) as substrate
Chymotrypsinogen A [6] = molecular target: T2, Chymotrypsinogen A; assay: Inhibitory activity against chymotrypsin using Suc-Ala-Ala-Pro-Phe-pNA (416 uM) as substrate; design: species or system Sus scrofa

An IC50 (Neutrophil elastase [1]) of over 1000 µM was found for `CCCn1c2ccc(OC)cc2c2c(=O)oc(=O)[nH]c21` in this work.

An IC50 (Pancreatic elastase) of over 1000 µM and an IC50 (Neutrophil elastase [1]) of 305 µM were found for `CC(=O)Oc1ccc2c(c1)c1c(=O)oc(=O)[nH]c1n2CCCc1ccccc1` in this work.

An IC50 (Neutrophil elastase [1]) of 75 µM was found for `CC(=O)Oc1ccc2c(c1)c1c(=O)oc(=O)[nH]c1n2Cc1ccccc1` in this work.

An IC50 (Neutrophil elastase [1]) of 454 µM was found for `CC(=O)Oc1ccc2c(c1)c1c(=O)oc(=O)[nH]c1n2C1CCCCC1` in this work.

An IC50 (Pancreatic elastase) of over 1000 µM and an IC50 (Neutrophil elastase [1]) of 810 µM were found for `CCCCn1c2ccc(OC(C)=O)cc2c2c(=O)oc(=O)[nH]c21` in this work.

An IC50 (Neutrophil elastase [1]) of 742 µM was found for `COC(Cn1c2ccc(OC(C)=O)cc2c2c(=O)oc(=O)[nH]c21)OC` in this work.

With `COCCn1c2ccc(OC(C)=O)cc2c2c(=O)oc(=O)[nH]c21` the IC50 (Chymotrypsinogen A [2]) was “Not Active” and the IC50 (Neutrophil elastase [1]) was over 1000 µM.

`COC(Cn1c(C)c(C)c2c(=O)oc(=O)[nH]c21)OC` was tested, and the IC50 (Neutrophil elastase [3]) was “Not Active” and the IC50 (Chymotrypsinogen A [4]) was “Not Active”.

For `Cc1c(C)n(Cc2ccccn2)c2[nH]c(=O)oc(=O)c12`, the IC50 (Neutrophil elastase [3]) was “Not Active”.

An IC50 (Neutrophil elastase [5]) of over 1000 µM was found for `COc1ccc2c(c1)c1c(=O)oc(=O)[nH]c1n2CCc1ccccc1` in this work.

An IC50 (Neutrophil elastase [1]) of over 1000 µM was found for `CCCCn1c(C)c(C)c2c(=O)oc(=O)[nH]c21` in this work.

With `CCCn1c(C)c(C)c2c(=O)oc(=O)[nH]c21` the IC50 (Neutrophil elastase [3]) was “Not Active” and the IC50 (Chymotrypsinogen A [4]) was “Not Active”.

An IC50 (Neutrophil elastase [1]) of over 1000 µM was found for `COc1ccc2c(c1)c1c(=O)oc(=O)[nH]c1n2Cc1ccccc1` in this work.

An IC50 (Pancreatic elastase) of 833 µM and an IC50 (Neutrophil elastase [1]) of 92 µM were found for `CC(=O)Oc1ccc2c(c1)c1c(=O)oc(=O)[nH]c1n2CCc1ccccc1` in this work.

An IC50 (Neutrophil elastase [3]; read-out: IC50) of 895 µM was found for `Cc1c(C)n(CCCc2ccccc2)c2[nH]c(=O)oc(=O)c12` in this work.

An IC50 (Neutrophil elastase [1]) of over 1000 µM was found for `COc1ccc2c(c1)c1c(=O)oc(=O)[nH]c1n2CC(OC)OC` in this work.

With `COCCn1c2ccc(OC)cc2c2c(=O)oc(=O)[nH]c21` the IC50 (Chymotrypsinogen A [4]) was “Not Active” and the IC50 (Neutrophil elastase [1]) was over 1000 µM.

`Cc1c(C)n(Cc2ccccc2)c2[nH]c(=O)oc(=O)c12` was tested, and the IC50 (Neutrophil elastase [3]) was “Not Active”.

An IC50 (Neutrophil elastase [1]) of 292 µM was found for `CC(=O)Oc1ccc2c(c1)c1c(=O)oc(=O)[nH]c1n2Cc1ccccn1` in this work.

In the case of `Cc1c(C)n(CCc2ccccc2)c2[nH]c(=O)oc(=O)c12`, the IC50 (Neutrophil elastase [3]) is reported as “Not Active”.

An IC50 (Chymotrypsinogen A [6]) of 512 µM and an IC50 (Neutrophil elastase [1]) of over 1000 µM were found for `COc1ccc2c(c1)c1c(=O)oc(=O)[nH]c1n2Cc1ccccn1` in this work.

An IC50 (Neutrophil elastase [5]) of 989 µM was found for `COc1ccc2c(c1)c1c(=O)oc(=O)[nH]c1n2CCCc1ccccc1` in this work.

An IC50 (Neutrophil elastase [1]) of over 1000 µM was found for `Cc1c(C)n(C2CCCCC2)c2[nH]c(=O)oc(=O)c12` in this work.

An IC50 (Neutrophil elastase [1]) of 665 µM was found for `CCCn1c2ccc(OC(C)=O)cc2c2c(=O)oc(=O)[nH]c21` in this work.

An IC50 (Neutrophil elastase [1]) of over 1000 µM was found for `COc1ccc2c(c1)c1c(=O)oc(=O)[nH]c1n2C1CCCCC1` in this work.

An IC50 (Neutrophil elastase [1]) of over 1000 µM was found for `CCCCn1c2ccc(OC)cc2c2c(=O)oc(=O)[nH]c21` in this work.

In the case of `COCCn1c(C)c(C)c2c(=O)oc(=O)[nH]c21`, the IC50 (Neutrophil elastase [3]) is reported as “Not Active” and the IC50 (Chymotrypsinogen A [4]) is reported as “Not Active”.
